In patent US20060276502A1, “Pharmaceutical use of 1-azabicyclo[2.2.2]octanes and a method of testing compounds for the ability of activating inactive wt p53” (priority 2003, published 2006):

Legend:
caspase-8 = assay: Western blot for cleavage of caspase-8, control Jurkat cells; type: cell-based; details: cycloheximide-treated Jurkate cells
M21 human melanoma cells = assay: Apoptosis by FITC-Annexin-V staining / FACS of M21 melanoma cells; type: cell-based
Method: With reference to FIG. 1A, the maternal human melanoma cells M21, expressing integrin αvβ3, and a subpopulation, M21L, lacking integrin αvβ3 were cultured in a three-dimensional collagen gel (3D-collagen). At indicated times, apoptosis was detected by FITC-Annexin-V staining.
Apoptosis was analyzed in M21 cells grown under 2D culture conditions or within 3D-collagen with or without PRIMA-1 treatment for 16, 24, 36 and 48 h. […] This also verifies the results using dn p53 and p53-siRNA (FIG. 3) in an independent manner.

[1] = tested on: C8161 melanoma cells (truncated, unfunctional p53); assay: C8161 melanoma tumour growth s.c. in C57/BL nude mice; type: in vivo; details: 100 mg/kg for 6 d starting 6 d after inoculation
Method: (§1) Tumour volumes were monitored for melanoma growth, as described in the preceding paragraph. Tumour volume over time was determined by the formula: width^2×length×0,52. […] In the Figure, ♦ represents M21; □ M21L; ▴ Lp53His175-0; and ★ Lp53His175-8. M21Lp53His175-0 and M21Lp53His175-8 formed large tumours similar in size to M21 tumours. However, M21L cells lacking integrin αvβ3 typically grew only minimal or developed no tumours.
(§2) To test if restoration of an active wt p53 conformation by PRIMA-1 could also induce melanoma cell apoptosis in vivo and thereby block melanoma tumour growth, M21 and C8161 melanoma cells (1,5×10^6) were injected s.c. into the back of 6-week-old C57/BL nude mice. The mice were treated with or without PRIMA-1 (100 mg/kg) for 6 d starting 6 d after tumour innoculation.

[2] = tested on: M21 melanoma cells (wt p53); assay: M21 melanoma tumour growth s.c. in C57/BL nude mice; type: in vivo; details: 100 mg/kg for 6 d starting 6 d after inoculation, versus PBS control
Method: as §1, §2

wt p53 = target: T1, wt p53 (Homo sapiens, UniProt P04637); assay: p53 conformation by ELISA with Pab 1620, Pab 240 and DO 1 in melanoma cells in 3D-collagen; type: cell-based
T1 construct: endogenous in cells; host or cells: M21, M21L and AA human melanoma cells
Method: Data shown in FIG. 2D represents Pab 1620 and Pab 240 reactivity as percentage of D01 reactivity (total p53).
PRIMA-1 is a substance known from WO0224692 to be able to reactivate the apoptosis-inducing function of mutant p53 proteins. […] The p53 conformation was examined as described above. […] To this end, p53 conformation was also analyzed in AA human melanoma cells expressing αv β3 integrin and wt p53 before and after incubation within 3D collagen (FIG. 4B).

Caspase 9 = assay: Western blot of Caspase 9 activation in M21 tumours grown in nude mice; type: in vivo; details: 24 h and 36 h after single injection
Source text: Caspase 9 is therefore a potential downstream effector of PRIMA-1- and p53-induced apoptosis in melanoma cells in vivo.

p53 = assay: Western blot of p53 acetylation and p53 target proteins in M21 tumours grown in nude mice after a single PRIMA-1 injection; type: in vivo; details: 24 h and 36 h after single injection
Source text: Thus, acetylation of p53-Lys382 is potentially involved in p53 activation by PRIMA-1, while Apaf-1 and PUMA are potential downstream mediators of PRIMA-1- and p53-induced melanoma cell apoptosis in vivo.

C[C@@H]1C[C@@H]([C@H](O)CC2CC(=O)NC(=O)C2)C(=O)[C@@H](C)C1 [cycloheximide]
caspase-8 cleavage (caspase-8): displayed caspase-8 cleavage

Z-LEHD-FMK x TFA [reference compound]
effect on PRIMA-1 induced apoptosis (M21 human melanoma cells; 36 h in 3D-collagen, with 80 μM PRIMA-1): blocked

O=C1C2CCN(CC2)C1(CO)CO [PRIMA-1, 2,2-bis(hydroxymethyl)-1-azabicyclo[2.2.2]octan-3-one]
melanoma growth (mean tumour volume) [1]: no effect
melanoma growth (mean tumour volume) [2]: significantly inhibited
p53 conformation (Pab 1620 / Pab 240 reactivity) (wt p53; AA human melanoma cells (αvβ3, wt p53), 100 μM PRIMA-1, 5 d in 3D collagen): enforced p53 into an active conformation
p53 conformation (Pab 1620 / Pab 240 reactivity) (wt p53; M21 cells (αvβ3+), 100 μM PRIMA-1, 3D-collagen, 7 d): restore active p53 conformation from an unfolded inactive state
activation of Caspase 9 (Caspase 9): activation of Caspase 9
Apaf-1 protein level (p53): induces
PUMA protein level (p53): induces
acetylation of p53-Lys382 (p53): induces
apoptosis (Annexin V staining) (M21 human melanoma cells; 100 μM PRIMA-1, 16, 24, 36 and 48 h, 3D collagen versus 2D culture): promoted apoptosis in M21 cells (αvβ3+) within 3D collagen to a much higher degree than in 2D culture
apoptosis (Annexin-V staining) (M21 human melanoma cells; 36 h in 3D collagen, 80 μM PRIMA-1): induces melanoma cell apoptosis
